Experimental data taken from PubChem BioAssay AID1645848.
Values after ≈ are worked out from the molar mass of the structure shown.

Conditions: buffer; pH 7.4; 6.0 h; 150.0 µM

Row | Structure (SMILES) | solubility kinetic [µg/mL]
1 | Cc1ccc(-c2cc(C(=O)Nc3ccccn3)c3ccccc3n2)cc1 | < 1
2 | Cc1ccc(C(=O)Nc2nc3nc(C)cc(=O)n3[nH]2)cc1 | > 42
3 | O=C(Nc1cccc(Cc2ccccc2)c1)c1ccc(-c2cccc([N+](=O)[O-])c2)o1 | < 1
4 | COc1ccc(NC2CCCN(C(=O)CCc3ccccc3F)C2)cc1 (centres undefined) | 41.3 (≈ 116 µM)
5 | CN(C)c1cccc(-c2cnc(Nc3cccnc3)c3c2CCO3)c1 | < 1
6 | Cc1ccc(S(=O)(=O)Nc2cnccc2C(=O)Nc2cccc3ccccc23)cc1 | 46.4 (≈ 111 µM)
7 | CCN1C(=O)c2ccccc2S(=O)c2ccc(NC(=O)Cc3ccc(F)cc3)cc21 (centres undefined) | < 1
8 | COc1ccc(-c2c(-c3cc(C(=O)O)ccn3)ncn2C)cc1 | > 46
9 | CCCCNC(=O)CN1CCN(c2ncc(NC(=O)c3ccc(Cl)cc3)cc2C(=O)O)CC1 | > 70
10 | C#CC1(O)CCC2C3CCC4=C/C(=N/OCC(=O)NCC(=O)NC(C(=O)O)C(C)C)CC[C@]4(C)C3CC[C@@]21C (some centres undefined) | > 80
11 | CC(C)(C)c1ccc(C(=O)Nc2ccc3c(c2)CCCN3C(=O)c2cccs2)cc1 | < 1
12 | COc1ccc(-n2nc(C3CCCN(C(=O)Nc4ccccc4)C3)[nH]c2=O)cc1 (centres undefined) | 34.9 (≈ 88.8 µM)
13 | c1ccc2c(Nc3nccs3)nc(-c3ccncc3)nc2c1 | < 1
14 | c1ccc(Nc2cc3c(cn2)CN(Cc2cccs2)CCN3)cc1 | 42.8 (≈ 127 µM)
15 | CCCCCNc1oc(-c2cccc3ccccc23)nc1C#N | < 1
16 | COc1cc(Cl)c(C)cc1NC(=O)CSc1ncc(S(=O)(=O)c2ccc(C(C)(C)C)cc2)c(=O)[nH]1 | < 1
17 | CCCCCCCc1c(C)nc(N2CCOCC2)[nH]c1=O | 4.18 (≈ 14.3 µM)
18 | COC(=O)CNC(=O)c1nc(-c2ccc(Cl)nc2)c2cnccn12 | > 61
19 | Cc1cc(Nc2ccc(Br)c(C)c2)n2nc(C)nc2n1 | 30.9 (≈ 93 µM)
20 | COc1ccc(-n2nc(C3CCCN(C(=O)c4cccc(OC)c4)C3)[nH]c2=O)cc1 (centres undefined) | 22.4 (≈ 54.8 µM)

Row | Structure (SMILES) | solubility kinetic [µg/mL]
21 | O=C(CCCCCCC(=O)Nc1ccccc1)NO | > 39
22 | CC(C)CCNC(=O)[C@H](CC(C)C)NC(=O)[C@H]1O[C@@H]1C(=O)O | 33 (≈ 105 µM)
23 | CN(C)CCNC(=O)c1nc2nc(-c3ccccc3)c(-c3cccc(F)c3)cc2n1C | 51.3 (≈ 123 µM)
24 | CCCCCCC.CN1C(=O)CN=C(c2ccc[nH]2)c2cc(Cl)ccc21 | > 40
25 | Nc1c(-c2ccccc2)cc[nH]c1=O | 12.9 (≈ 69.1 µM)
26 | COc1ccccc1CNc1ccc(N2CCCCC2)cc1 | 12.9 (≈ 43.5 µM)
27 | [2H]C([2H])(Nc1nc(-c2ccccc2C([2H])(C([2H])([2H])[2H])C([2H])([2H])[2H])ncc1C)c1ccc(-n2ccnn2)cc1 | 13.5 (≈ 34.3 µM)
28 | O=[N+]([O-])c1cccc(CNc2ccc(S(=O)(=O)Nc3nccs3)cc2)c1O | 10.3 (≈ 25.2 µM)
29 | CC(C)c1ccccc1-c1ncc(F)c(NCC2CCN(c3cnccn3)C2)n1 (centres undefined) | 32.1 (≈ 81.7 µM)
30 | O=C(Nc1ccc(Nc2ccncc2)cc1)c1ccc(Nc2ccnc3ccc([N+](=O)[O-])cc23)cc1[N+](=O)[O-] | < 1
31 | Fc1ccc(Oc2nc(-c3ccncc3)nc3ccccc23)cc1F | 6.95 (≈ 20.7 µM)
32 | COC(=O)c1ccc(Oc2nc3c(c(=O)n(C)c(=O)n3C)n2CCC(C)C)cc1 | < 1
33 | O=[S+]([O-])(Nc1ccc(N2CCNCC2)cc1)c1ccc(NCc2ccc(Br)cc2O)cc1 | 20.1 (≈ 38.8 µM)
34 | CC(C)CN(C[C@@H](O)[C@H](Cc1ccccc1)NC(=O)O[C@@H]1CO[C@H]2OCC[C@H]21)S(=O)(=O)c1ccc(N)cc1 | > 81
35 | CCCCCn1c(=O)[nH]c2cc(C(=O)NCCCN3CCC(C)CC3)ccc2c1=O | > 61
36 | NC(=O)C1CCN(c2nc(-c3ccc(Cl)cc3)cs2)CC1 | 1.52 (≈ 4.72 µM)
37 | COc1ccccc1Nc1ccnc(N2CCN(C(=O)c3ccccc3Cl)CC2)n1 | 1.59 (≈ 3.75 µM)
38 | Fc1ccc(-c2ccc(Nc3nc(-c4ccncc4)nc4ccccc34)cc2F)cc1 | < 1
39 | CCC(CC)c1cc([C@H]2CN3CC[C@H]2C[C@@H]3CNC(C)=O)nc(-c2ccncc2)n1 | > 60
